From PMC8952208, “Synthesis, Antiplasmodial, and Antileukemia Activity of Dihydroartemisinin–HDAC Inhibitor Hybrids as Multitarget Drugs” (Pharmaceuticals, 2022)
“Also recorded” adds a separate entry of the source.

Columns and labels:
HL60 cells = assay: CellTiter-Glo cell viability assay, HL60; type: cell-based, human; conditions: for IC50: Homo sapiens, HL-60, AML, 72 h, CellTiter-Glo, n = 3; for Selectivity index range healthy fibroblasts vs HL60: SI = (healthy fibroblast IC50)/(leukemia cell line IC50), range over two fibroblasts
Description: (§1) Healthy individually-derived fibroblasts were cultured in DMEM supplemented with 10% FCS. Regular cell line authentication was performed short tandem repeat (STR) analysis (DNA fingerprinting), followed by comparison with the original DSMZ cell line database.
(§2) Cell viability assay was performed with leukemic cell lines after 72 h incubation with the respective inhibitors using ATP-based CellTiter-Glo luminescent assay (Promega, Madison, WI, USA).

P. falciparum Dd2 R539T = assay: In vitro P. falciparum growth inhibition assay (HRP2), Dd2 R539T; type: cell-based; conditions: Plasmodium falciparum, DD2, 72 h, read-out: PfDd2 R539T IC50
Description: Antiplasmodial activity of DHA–HDACi hybrids was evaluated against the asexual stages of the laboratory P. falciparum strains (3D7, chloroquine-sensitive strain, and Dd2, chloroquine-resistant strain, and Dd2 R539T (MRA-1255), provided by BEI Resources carrying a kelch13-mutation that conveys partial artemisinin resistance), using the histidine-rich protein 2 (HRP2) assay, as previously described. In brief: 96-well plates were precoated with the tested compounds in a three-fold serial dilution before ring-stage parasites were added in complete culture medium at a hematocrit of 1.5% and a parasitaemia of 0.05%. After three days of incubation at 37 °C, 5% CO2 and 5% O2 plates were frozen until analyzed by HRP2-ELISA. All compounds were evaluated in duplicate in at least two independent experiments. The IC50 was determined by nonlinear regression analysis of log concentration-response curves using the drc-package v3.0.1 [40] of R v4.0.5..

K562 cells = assay: Annexin V-PI staining; type: cell-based, human; conditions: 48 h, 0.4 µM or 0.8 µM
Description: To evaluate the induction of apoptosis upon respective inhibitor treatment, K562 cells were incubated (48 h) with inhibitors (0.4 µM or 0.8 µM) or with vehicle control (DMSO). The induction of apoptosis/necrosis was analyzed by measuring hypodiploid DNA content, mitochondrial potential, and exposure of phosphatidylserine after annexin/propidium iodide (PI) staining kit (BD, Franklin lakes, NJ, USA) using FACS.

NALM6 cells = assay: CellTiter-Glo cell viability assay, NALM6; type: cell-based, human; conditions: for IC50: Homo sapiens, NALM-6, B-ALL, 72 h, CellTiter-Glo, n = 3; for Selectivity index range healthy fibroblasts vs NALM6: SI = (healthy fibroblast IC50)/(leukemia cell line IC50), range over two fibroblasts
Description: as §1, §2

[1] = tested on: acetylation of α-tubulin (marker of HDAC6 inhibition); assay: Immunoblotting, acetyl-α-tubulin in K562 cells; type: cell-based, human; conditions: 0.4 µM, 24 h
Description: (§3) K562 cells were treated with the indicated concentration of the compounds or vehicle control (DMSO) for 24 h. The recovered cell pellets were lysed with RIPA buffer (50 mM Tris-HCl pH 8.0, 1% Triton X-100, 0.5% sodium deoxycholate, 0.1% SDS, 150 mM sodium chloride, and 2 mM EDTA), supplemented with protease and phosphatase inhibitors (Thermofischer Scientific, Waltham, MA, USA). An equal amount of total protein (20 µg) was resolved by SDS-PAGE and followed by transfer on nitrocellulose membrane (Sigma-Aldrich). PageRuler prestained protein ladder, 10 kDa to 180 kDa (Thermofisher Scientific, Waltham, MA, USA) was used as a protein molecular weight marker.

[2] = tested on: five leukemia cell lines (K562, HL60, NALM6, HPBALL, MOLM13); assay: CellTiter-Glo cell viability assay, panel of five leukemia cell lines; type: cell-based, human; conditions: for antiproliferative activity compared to DHA: number of the five leukemia cell lines in which DHA is exceeded
Description: as §1, §2

Healthy Fibroblast 2 = assay: Cytotoxicity against healthy fibroblast 2; type: cell-based; conditions: Homo sapiens, healthy individually-derived fibroblasts
Description: as §1, §2

MOLM13 cells = assay: CellTiter-Glo cell viability assay, MOLM13; type: cell-based, human; conditions: for IC50: Homo sapiens, MOLM-13, AML, 72 h, CellTiter-Glo, n = 3; for Selectivity index range healthy fibroblasts vs MOLM13: SI = (healthy fibroblast IC50)/(leukemia cell line IC50), range over two fibroblasts
Description: as §1, §2

[3] = tested on: acetylation of histone H3 (marker of HDAC1 inhibition); assay: Immunoblotting, acetyl-histone H3 in K562 cells; type: cell-based, human; conditions: 0.4 µM, 24 h
Description: as §3

[4] = tested on: artemisinin-resistant P. falciparum Dd2 R539T; assay: Ring-stage survival assay (0–3 h), Dd2 R539T; type: cell-based; conditions: 700 nM, 6 h pulse; relative to DMSO control; compared with DHA
Description: (§4) The effect of DHA–HDACi hybrids on artemisinin-resistant asexual stages of P. falciparum was assessed using the ring-stage survival assay as previously described with minor modifications. Briefly, mature schizonts of the artemisinin-sensitive strain Dd2 and the partial artemisinin-resistant strain Dd2 R539Twere isolated using magnetic column separation. The schizonts were then put with 10 mL complete medium and 200 µL 0^+ erythrocytes in a T-25 cell culture flask and incubated for exactly 3 h (37 °C, 5% O2, and 5% CO2). Next, parasites were synchronized with 5% (w/v) D-sorbitol solution yielding a culture containing only newly-invaded (0–3 h) ring-stage parasites.
(§5) Ring-stage parasites were added at 2% hematocrit and 0.5% parasitemia to a 48-well plate precoated with complete medium containing either DHA (Sigma-Aldrich) (positive control) or the tested DHA–HDACi hybrids at a final concentration of 700 nM or DMSO (negative control). […] Parasitemia was assessed by Giemsa-stained thin blood smears by two independent readers (10,000 erythrocytes per slide). If the results were discordant by more than 50%, a third independent read was conducted. The survival was calculated as the percentage of treated versus the untreated controls (DMSO). […] Means and standard deviations were calculated using Microsoft Excel. […]

[5] = tested on: artemisinin-sensitive P. falciparum Dd2; assay: Ring-stage survival assay (0–3 h), Dd2; type: cell-based; conditions: 700 nM, 6 h pulse; relative to DMSO control
Description: as §4, §5

Row | SMILES | IC50 (HL60 cells) [nM] | Selectivity index range healthy fibroblasts vs HL60 (HL60 cells) | IC50 (P. falciparum Dd2 R539T) [nM] | apoptosis induction (annexin V/PI) (K562 cells) | IC50 (NALM6 cells) [nM] | Selectivity index range healthy fibroblasts vs NALM6 (NALM6 cells) | acetylation of α-tubulin (immunoblot) [1] | antiproliferative activity compared to DHA [2] | IC50 (Healthy Fibroblast 2) [nM] | IC50 (MOLM13 cells) [nM] | Selectivity index range healthy fibroblasts vs MOLM13 (MOLM13 cells) | acetylation of histone H3 (immunoblot) [3] | survival of artemisinin-resistant Dd2 R539T parasites in ring-stage survival assay [4] | necrosis induction (annexin V/PI) (K562 cells) | IC50 ([2]; Homo sapiens, range over K562, HL60, NALM6, HPBALL, MOLM13, read-out: IC50 values across the five leukemia cell lines) [nM] | selectivity indices (SI) fibroblasts over leukemia cells, highest ([2]; highest SI across leukemia cell lines and fibroblasts) | survival of artemisinin-sensitive Dd2 parasites in ring-stage survival assay [5] [%]
1 | C[C@H]1[C@H](SCc2ccc(C(=O)NO)cc2)O[C@@H]2O[C@@]3(C)CC[C@H]4[C@H](C)CC[C@@H]1[C@@]24OO3 [(β)-7c, N-Hydroxy-4-((((3R,5aS,6R,8aS,9R,10S,12S,12aR)-3,6,9-trimethyldecahydro-12H-3,12-epoxy[1,2]dioxepino[4,3-i]isochromen-10-yl)thio)methyl)benzamide] | 2340 ± 460 | 6-8 | 2.6 ± 2 | significantly induced apoptosis as compared to DHA | 250 ± 10 | 59-71 | induced acetylation of α-tubulin | outperforming DHA in four out of five | 17800 ± 6040 | 380 ± 70 | 39-47 | did not induce acetylation of histone H3 |  |  |  |  | 
2 | C[C@H]1[C@@H](SCc2ccc(C(=O)NO)cc2)O[C@@H]2O[C@@]3(C)CC[C@H]4[C@H](C)CC[C@@H]1[C@@]24OO3 [(α)-7c, N-Hydroxy-4-((((3R,5aS,6R,8aS,9R,10R,12S,12aR)-3,6,9-trimethyldecahydro-12H-3,12-epoxy[1,2]dioxepino[4,3-i]isochromen-10-yl)thio)methyl)benzamide] | 1020 ± 270 | 7-12 | 3.3 ± 2.2 |  | 280 ± 50 | 27-45 |  | all five cell lines | 7410 ± 1400 | 330 ± 110 | 23-39 |  | significantly more active than DHA alone; also recorded: lowest survival | induced significant necrosis |  |  | 
3 | C[C@@H]1CC[C@H]2[C@@H](C)C(OCc3ccc(/C=C/C(=O)NO)cc3)O[C@@H]3O[C@@]4(C)CC[C@@H]1[C@]32OO4 (stereo partly drawn) [Compound 7a, (E)-N-Hydroxy-3-(4-((((3R,5aS,6R,8aS,9R,12R,12aR)-3,6,9-trimethyldecahydro-12H-3,12-epoxy[1,2]dioxepino[4,3-i]isochromen-10-yl)oxy)methyl)phenyl)acrylamide] | 1330 ± 140 | 5-10 | 1.9 ± 1.4 | significantly induced apoptosis as compared to DHA | 150 ± 10 | 42-87 |  | all five cell lines | 6340 ± 790 | 220 ± 40 | 29-60 |  |  |  | 150 to 1360 | up to 87 | 
4 | C[C@H]1[C@@H](O)O[C@@H]2O[C@@]3(C)CC[C@H]4[C@H](C)CC[C@@H]1[C@@]24OO3 [DHA, dihydroartemisinin] | 3570 ± 1040 |  |  |  | 2500 ± 160 |  | affected the acetylation level neither of α-tubulin nor of histone H3 |  | > 25000 | 690 ± 170 |  | affected the acetylation level neither of α-tubulin nor of histone H3 |  |  |  |  | ≤ 0.25
